{Cy3} = cyanine 3 fluorescent label; {Chol} = cholesterol
Tests used:
[1] = tested on: SV40 transformed fibroblasts MRC-5; experiment: Flow cytometry cellular uptake of formulated Dbait-cy3 (Table 1); assay type: cell-based, human
Description: (§1) The inventors monitored the cellular uptake of the different complexes using a fluorescent cy3-modified Dbait. The initial fluorescence of the cy3-Dbait complex was monitored immediately before transfection. […] Cellular content of human transfected fibroblast cells was measured by flow cytometry analysis.
The Dbait molecules were made by automated solid-phase oligonucleotide synthesis. […] […] (SEQ ID NO: 4) where H is a hexaethyleneglycol linker. Studies on cells in culture were performed using SV40 transformed fibroblasts MRC-5. Cells were grown at 37° C. in monolayer cultures in complete DMEM (Gibco, Cergy-Pontoise, France) with 10% FCS and antibiotics (100 μg/mL streptomycin and 100 μg/mL penicillin) under conditions of 100% humidity, 95% air and 5% CO2. Unless otherwise specified, transfections were performed in 1.2 mL MEM medium without serum in 60 mm diameter plates. Transfection with jetPEI (Polyplus-transfection, Illkirch, France) was performed at an N/P ratio of 6 according to the manufacturer's instructions. Briefly, Dbait was diluted in 150 mM NaCl and gently mixed with an equal volume of PEI in 150 mM NaCl and added to DMEM medium without serum. coDbait was directly added to DMEM medium without serum. Transfection of Dbait molecules was performed with SuperFect reagent in 1.2 mL DMEM medium with serum (in 60 mm diameter plates) for 5 hours and then cells were left to recover for 1 hour if not indicated otherwise. For electroporation, 1.2×10^6 cells were transfected with 2 μg Dbait using the Gene Pulser II (Bio-Rad, Marnes-la-Coquette, France). At the end of the 5h transfection (time zero), medium was replaced by complete medium and cells were grown for the indicated time before being analyzed.
(§2) Cells were transfected with different complexes with Dbait-cy3 for 5 h and allowed to grow 5 hours or 24 hours, then rapidly washed with PBS. Cells were directly analyzed by flow cytometry. For immunofluorescence detection by flow cytometry, the cells were fixed in 2% paraformaldehyde for 10 min prior to immunodetection. […] Cells were washed with PBS and resuspended in PBS with 50 μg/mL propidium iodide, 25U/ml RNaseA. Cells were analyzed by a FACSCalibur flow cytometer (BD Biosciences, Franklin Lakes, N.J., USA) and data was analyzed using BD CellQuest Pro (BD Biosciences) and the free WinMDI 2.8 (Scripps Research Institute, La Jolla, Calif., USA) software.

[2] = tested on: SK28 melanoma xenograft; conditions: coDbait 0.6 mg IT alone (group 4) or CQ 1 mg i.p. alone (group 3), with irradiation
Description: Survival of five groups of nude mice bearing SK28 melanoma xenografts has been studied.

[3] = tested on: SK28 xenografted human melanoma; experiment: SK28 xenograft survival and tumor growth delay after irradiation with formulated Dbait (Table 2); conditions: IT; for Mean TGD: tumor growth delay
Description: The antitumoral effect of formulated Dbait was tested in combination with radiotherapy on SK28 xenografted human melanoma. Dbait/vector complexes were administered 5 hours before each irradiation using intratumoral injections.
SK28 or U87G xenograft tumors were obtained by injecting 10^6 tumor cells into the flanks of adult female nude mice (Charles River strain; L'Arbresle, France). […] After approximately 12 days, when the subcutaneous tumors measured 150-200 mm^3, the mice were separated into homogeneous groups of at most 12 each to receive different treatments. […] Doses were controlled by thermoluminescence dosimetry. A total dose of 30 Gy was delivered in 6 sessions at intervals of three sessions of 5 Gy per week during two weeks. Dbait molecules were prepared in 100 μL of 10% sucrose as previously described for in vitro studies except that PEI mixtures were performed without NaCl (Polyplus-transfection, Strasbourg, France). The Dbait mixtures were incubated for 15 min at room temperature before injection. CoDbait was diluted in 10% sucrose at the required concentration. Intratumoral injections of the indicated amount of Dbait were performed 5 h before each radiotherapy session. Mock treated animals were injected with 100 μL of 10% glucose according to the protocol of the associated assays. Tumor size was assessed by caliper measurements every three days and size was calculated by the formula (2× length×width^2). Mice were weighed and pictures of tumors were taken every week. For ethical reasons, the animals were sacrificed when their tumors reached 2,000 mm^3. The end point used in survival analysis was death day.
Descriptive analyses of the tumor response were performed for each treatment and each tumor type. Day 1 was the day of the first treatment session. All animals were followed for at least 150 days. Median lifetime was estimated according to the Kaplan-Meier method. Tumor growth delay (TGD) was calculated by subtracting the mean tumor volume quadrupling time of the control group from tumor volume quadrupling times of individual mice in each treated group. The mean TGD was calculated for each treated group using the individual measurements. […] A global LogRank was first performed for each group with the same tumor type. Then treatments with Dbait were compared to the mock-treated controls. All tests were considered significant at the 0.05 significance level.

[4] = tested on: MRC5 cell line; experiment: Flow cytometry analysis of cellular uptake in the MRC5 cell line (Cy3); assay type: cell-based, human
Description: Cellular uptake of the Dbait conjugated to cholesterol, in particular CoDbait, in comparison with the Dbait was measured by the inventors by flow cytometry analysis.
Flow cytometry analysis of cellular uptake in the MRC5 cell line performed at 5 hours after the beginning of treatment of various transfection conditions was as described in the table.

[5] = tested on: zebrafish embryos; experiment: Injection into 1K-stage zebrafish embryos: distribution and 24 h phenotype toxicity; conditions: same concentration of Dbait, by adjuvant
Description: More than 100 embryos were analyzed for each condition.
The observation of phenotypic effects 20 hours after injection allowed assessment of Dbait activity and treatment overall toxicity. […] The 24-hour phenotypes were categorized as described (FIG. 3), allowing quantification of the injected mixture's toxicity.
Zebrafish eggs were obtained from natural spawning of wild type or transgenic (flactin:egfp-ras) fish lines. […] Glass capillaries (Harvard Apparatus GC100-10) were pulled with a KopF vertical pipette puller (KopF 720) to make injection needles. 2 to 5 nl of Dbait solution were injected at the animal pole of embryos in cell cycle 10 and immediately processed for confocal laser scanning microscopy imaging (upright Leica SP2) with 40×/0.8 NA water dipping lens objective. Imaging was performed by simultaneous 480 nm (eGFP) and 561 nm (cy3) excitation. […] One-day-old larvae were observed under the dissecting stop and phenotypes categorized as described in FIG. 3. […] Dbait (coDbait)-cy3 50 μM was injected either alone or in combination with PEI25K (ratio N/P=9), PEI11K (ratio N/P-6), or SuperFect (10 μl/1 μg Dbait).

[6] = Fluorescence of formulated cy3-Dbait before transfection; conditions: fluorescence at FL2 value of the cy3-Dbait formulation
Description: as §1
as §2, with “Cells” for “Cells were transfected with different complexes with Dbait-cy3 for 5 h and allowed to grow 5 hours or 24 hours, then rapidly washed with PBS. Cells”

[7] = corrected cellular content FL2/fluorescence, Dbait 1.6 μg/mL

Compound: CCN(CC)CCCC(C)Nc1ccnc2cc(Cl)ccc12 (stereo not shown) [chloroquine, 7-chloro-4-(4-diethylamino-1-methylbutyl-amino)quinoline]
- MCC 5 hrs ([1]; mean cellular content FL2 value, no Dbait, chloroquine only): 3.12
- radiosensitization [2]: neither coDbait (group 4) nor CQ (group 3) showed significant radiosensitization
- Mean % TGD ([3]; CQ without Dbait): 142%
- Median survival time ([3]; CQ without Dbait): 68
- Mean TGD ([3]; CQ without Dbait): 8

Compound: Co_siRNA_H2AX-Cy3: siRNA targeting H2AX with a cyanine 3 and a cholesterol at the 5′ and 3′ of the sense strand (sense CAACAAGAAGACGCGAAUCTT; antisense GAUUCGCGUCUUCUUGUUGTT; sense: 5' {Cy3}, 3' {Chol}, sugars by position and backbone not given here; antisense: chemistry not given here)
- Cy3 fluorescence intensity @5 hrs. Mean ([4]; 79 nM): 56
- Cy3 fluorescence intensity @5 hrs. Median ([4]; 79 nM): 53
- Cy3 fluorescence intensity @5 hrs. Mean ([4]; 79 nM + CQ 50 μM): 63
- Cy3 fluorescence intensity @5 hrs. Median ([4]; 79 nM + CQ 50 μM): 60
- Cy3 fluorescence intensity @5 hrs. Mean ([4]; 986 nM): 710
- Cy3 fluorescence intensity @5 hrs. Median ([4]; 986 nM): 661
- Cy3 fluorescence intensity @5 hrs. Mean ([4]; 986 nM + CQ 50 μM): 1214
- Cy3 fluorescence intensity @5 hrs. Median ([4]; 986 nM + CQ 50 μM): 1144

Compound: Dbait: 32-bp hairpin DNA, SEQ ID NO: 4, hexaethyleneglycol linker; mimics double strand breaks (DNA GCTGTGCCCACAACCCAGCAAACAAGCCTAGA; DNA, backbone not given here; hairpin DNA with hexaethyleneglycol linker)
- 24-hour phenotype / toxicity in zebrafish embryos [5]: no effect on development
- fluorescence × 10e−6/μg/mL [6]: 6 10e−6/μg/mL
- cor MCC 5 hrs [1, 7]: 0.43
- cor MCC 24 hrs [1, 7]: 0.56
- fluorescence distribution of treated cells ([1]; flow cytometry): not different from untreated controls
- MCC 24 hrs ([1]; mean cellular content FL2 value, Dbait 1.6 μg/mL): 3.45
- MCC 5 hrs ([1]; mean cellular content FL2 value, Dbait 1.6 μg/mL, chloroquine +/− as in row): 2.65
- Mean % TGD ([3]; 6 × 60 μg (3 nmol)): 114%
- Median survival time ([3]; 6 × 60 μg (3 nmol)): 63
- Cured mice ([3]; 6 × 60 μg (3 nmol), no recurrence within 300 days): 0
- Relative risk ([3]; 6 × 60 μg (3 nmol), versus mock): 1.40
- Mean TGD ([3]; 6 × 60 μg (3 nmol)): 3

From patent publication US10765758B2, “Optimized in vivo delivery system with endosomolytic agents for nucleic acid conjugates” (ONXEO, priority 2010, dated 2020)
